Columns and labels:
[1] = tested on: RAW264.7; assay: Inhibition of LPS-induced NO production in mouse RAW264.7 cells pretreated for 30 mins followed by LPS challenge measured after 24 hrs by Griess assay; type: functional, cell-based
[2] = tested on: RAW264.7; assay: Cytotoxicity against mouse RAW264.7 cells by MTT assay; type: cell-based
[3] = tested on: RAW264.7; assay: Inhibition of LPS-induced NO production in mouse RAW264.7 cells pretreated for 30 mins followed by LPS challenge measured after 12 hrs by Griess assay; type: functional, cell-based

Compound | IC50 [1] [µM] | Activity [2] | IC50 [3] [µM]
COC(=O)[C@H]1O[C@@H](O[C@H]2CC[C@]3(C)[C@H]4CC=C5[C@@H]6CC(C)(C)CC[C@]6(CO)[C@H](O)C[C@@]5(C)[C@]4(C)CC[C@H]3C2(C)C)[C@H](O[C@@H]2O[C@@H](C)[C@H](O)[C@@H](O)[C@H]2O)[C@@H](O)[C@@H]1O | 49.4 | Non-Toxic | –
COc1cc(O)cc(O)c1C(=O)/C=C/c1ccccc1 [CARDAMOMIN] | – | – | 2.2

Reference: ChEMBL document CHEMBL4000198, “Triterpene saponins and megastigmane glucosides from Camellia bugiamapensis” (Bioorg Med Chem Lett, 2017)
